This test addresses T1, human β3 receptors (Homo sapiens, UniProt P13945).
T1 construct: Full length β3 AR clones (402 amino acids) containing the last 6 amino acids of hβ3—AR; expressed in transfected cells; host or cells: CHO cells
The test is described as follows: cAMP response (SPA) in CHO cells expressing cloned human β3 adrenergic receptor. Type of test: cell-based. As to conditions: for EC50: CHO cells expressing human β3 receptor, cAMP, 30 min incubation, 10^−9 M to 10^−5 M; for IA(β3): maximal response compared to the maximal response of isoproterenol at 10^−5 M. On the procedure:
Binding to the receptors was measured in Chinese Hamster ovary (CHO) cells that were transfected with adrenergic receptors.
Cloning of Human β3-AR Genomic DNA: cDNA was constructed by ligating four polymerase chain reaction (PCR) products using the following primers: an ATG-NarI fragment, sense primer 5′-[…]3′ and anti-sense primer 5′ […]3′; a NarI-AccI fragment, 5′ […]3′ as sense and 5′ […]3′ as anti-sense primer; an AccIi-StyI fragment, sense primer 5′ […]3′ and anti-sense primer 5′ […]3′ and a StyI-TAG fragment, with sense primer 5′ […]3′ and anti-sense primer 5′ […]3′. The corresponding primer sequences are described in Mantzoros, C. […] The four fragments are ligated into a pUC 18 plasmid (Gibco-BRL) and sequenced.
CHO cells were grown in 24-well tissue culture plates in Dulbecco's Modified Eagle Media with 10% fetal bovine serum, MEM non-essential amino acids, Penicillin-Streptompycin and Geneticin. […] Isoproterenol (10^−5 M) was used as an internal standard for comparison of activity. Cells were incubated at 37° C. on a rocker for 30 min with the β3 cells and 15 min for β1 and β2 cells. Incubation was stopped with the addition of 0.2N HCl and neutralized with 2.5N NaOH. The plates, containing the cells and neutralized media, were stored at −20 degrees celsius until ready to test for cAMP using the SPA test kit (Amersham).
Data Analysis and Results: Data collected from the SPA test procedure were analyzed as per cent of the maximal isoproterenol response at 10^−5 M. Activity curves were plotted using the SAS statistical and graphics software.

T1 sequence (P13945 whole entry): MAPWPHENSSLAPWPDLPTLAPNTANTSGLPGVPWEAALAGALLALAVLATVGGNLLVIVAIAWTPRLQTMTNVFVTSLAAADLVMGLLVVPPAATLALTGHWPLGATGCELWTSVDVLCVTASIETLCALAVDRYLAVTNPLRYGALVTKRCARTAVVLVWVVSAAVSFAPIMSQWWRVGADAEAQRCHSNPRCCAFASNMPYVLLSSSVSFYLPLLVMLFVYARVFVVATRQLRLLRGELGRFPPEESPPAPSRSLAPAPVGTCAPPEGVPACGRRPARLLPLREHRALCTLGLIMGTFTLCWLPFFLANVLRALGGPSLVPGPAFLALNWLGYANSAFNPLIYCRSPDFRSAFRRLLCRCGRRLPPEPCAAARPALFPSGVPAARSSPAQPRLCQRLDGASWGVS

The term EC50 denotes the concentration that produces a half-maximal response. Read a high EC50 as a need for much substance. Regarding `CS(=O)(=O)Nc1cc([C@@H](O)CNCC2CCN(S(=O)(=O)c3ccc(NC(=O)NCc4ccc(OCC(=O)O)cc4F)cc3)CC2)ccc1O` [Example 89, [3-Fluoro-4-[[[[[4-[[4-[[[(R)-2-hydroxy-2-[4-hydroxy-3-[(methylsulfonyl)amino]phenyl]-ethy]amino]-methyl]-1-piperidinyl]sulfonyl]phenyl]amino]carbonyl]-amino]-methyl]phenoxy]acetic Acid], the EC50 was 35 nM.

For the compound `O=c1[nH]c2cccc(OC[C@@H](O)CNCC3CCN(CCC(F)(F)F)CC3)c2[nH]1` [Example 22, 4-((2S)-2-Hydroxy-3-{[1-(3,3,3-trifluoro-propyl)-piperidin-4-ylmethyl]-amino}-propoxy)-1,3-dihydro-benzoimidazol-2-one], the EC50 stood at 1210 nM and the “IA(β3)” value was determined as 0.53.

With `CC(C)N(Cc1cc(F)ccc1F)C(=O)Nc1ccc(S(=O)(=O)N2CCC(CNC[C@H](O)c3ccc(O)c(NS(C)(=O)=O)c3)CC2)cc1` [Example 86], the EC50 stood at 3 nM and the “IA(β3)” value worked out at 0.78.

For `CC(C)N(Cc1c(F)cccc1F)C(=O)Nc1ccc(S(=O)(=O)N2CCC(CNC[C@H](O)c3ccc(O)c(NS(C)(=O)=O)c3)CC2)cc1` [Example 84, N-(5-{(1R)-2-[(1-{4-[3-(2,6-Difluoro-benzyl)-3-isopropyl-ureido]-benzenesulfonyl}-piperidin-4-ylmethyl)-amino]-1-hydroxy-ethyl}-2-hydroxy-phenyl)-methane-sulfonamide], the EC50 came out at 27 nM and the “IA(β3)” value is on record as 0.93.

`CS(=O)(=O)Nc1cc([C@@H](O)CNCC2CCN(S(=O)(=O)c3cccc4ccccc34)CC2)ccc1O` [Example 153, N-{2-hydroxy-5-[(1R)-1-hydroxy-2-({[1-(1-naphthylsulfonyl)piperidin-4-yl]methyl}amino)ethyl)phenyl}methanesulfonamide]: the EC50 was found to be 42 nM and the “IA(β3)” value turned out to be 0.76.

For the compound `COc1ccc(S(=O)(=O)N2CCC(CNC[C@H](O)COc3ccc(O)cc3)CC2)cc1OC` [Example 43, 4-((2S)-2-Hydroxy-3-{[1-(3,4-dimethoxy-benzenesulfonyl)-piperidin-4-ylmethyl]-amino}-propoxy)-phenol], the EC50 stood at 880 nM and the “IA(β3)” value stood at 0.68.

For the compound `OC1c2ccccc2-c2c(OC[C@@H](O)CNCC3CCN(CCC(F)(F)F)CC3)cccc21` (stereo partly drawn) [Example 14, 4-((2S)-2-Hydroxy-3-{[1-(3,3,3-trifluoro-propyl)-piperidin-4-ylmethyl]-amino}-propoxy)-9H-fluoren-9-ol], the EC50 was 219 nM and the “IA(β3)” value came out at 0.75.

Take `CC(C)(C)c1ccc(S(=O)(=O)N2CCC(CNC[C@H](O)COc3ccc(O)cc3)CC2)cc1` [Example 160, 4-[((2S)-3-{[(1-{[4-(tert-butyl)phenyl]sulfonyl}piperidin-4-yl)methyl]amino}-2-hydroxypropyl)oxy]phenol]: the midpoint of the response, the EC50, lay at 346 nM and the “IA(β3)” value came out at 0.85.

Consider `CS(=O)(=O)Nc1cc([C@@H](O)CNCC2CCN(S(=O)(=O)c3ccc(-n4cc(CC(=O)O)c5ccccc54)cc3)CC2)ccc1O` [Example 97, {1-[4-(4-{[(2R)-2-Hydroxy-2-(4-hydroxy-3-methanesulfonylamino-phenyl)-ethylamino]-methyl}-piperidine-1-sulfonyl)-phenyl]-1H-indol-3-yl}-acetic Acid], for which it took 11 nM to reach a half-maximal effect (EC50) and the “IA(β3)” value is on record as 0.96.

With `CCOC(=O)c1cnn(-c2ccc(S(=O)(=O)N3CCC(CNC[C@H](O)c4ccc(O)c(NS(C)(=O)=O)c4)CC3)cc2)c1` [Example 100, Ethyl 1-{4-[(4-{[((2R)-2-Hydroxy-2-{4-hydroxy-3-[(methylsulfonyl)amino]-phenyl}ethyl)amino]methyl}piperidin-1-yl)sulfonyl]phenyl}-1H-pyrazole-4-carboxylate], a half-maximal effect (EC50) was put at 41 nM and the “IA(β3)” value amounted to 1.
